Assays:
[1] = tested on: Monocotyledonous and dicotyledonous test plants; assay: Herbicidal action before emergence of the plants (pre-emergence action); assay type: in vivo; conditions: evaluated after 3 weeks, nine-step scale; for pre-emergence action, Cyperus / pre-emergence action, Ipomoea / pre-emergence action, Setaria / pre-emergence action, Sinapis / pre-emergence action, Solanum / pre-emergence action, Stellaria: 2000 g/ha
In short: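 Sprayed onto soil immediately after sowing as WP suspension or EC emulsion at 2 kg or 250 g a.i./ha (500 l water/ha). Greenhouse growth for 3 weeks, then scored on a nine-step scale (1 = complete damage, 9 = no effect).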

[2] = tested on: Monocotyledonous and dicotyledonous test plants; assay: Post-emergence herbicidal action; assay type: in vivo; conditions: evaluated after approximately 18 days; for Post-emergence action, Ipomoea / Post-emergence action, Lolium / Post-emergence action, Setaria / Post-emergence action, Sinapis / Post-emergence action, Solanum / Post-emergence action, Stellaria: 2000 g/ha, sprayed in 4- to 6-leaf stage, nine-step scale
In short: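 Greenhouse plants sprayed at the 4- to 6-leaf stage with test substance as wettable-powder suspension or emulsion-concentrate emulsion, 2 kg or 250 g a.i./ha in 500 l water/ha. Scored after about 18 days on a nine-step scale (1=complete damage, 9=no effect).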

| SMILES | pre-emergence action, Cyperus [1] | pre-emergence action, Ipomoea [1] | pre-emergence action, Setaria [1] | pre-emergence action, Sinapis [1] | pre-emergence action, Solanum [1] | pre-emergence action, Stellaria [1] | Post-emergence action, Ipomoea [2] | Post-emergence action, Lolium [2] | Post-emergence action, Setaria [2] | Post-emergence action, Sinapis [2] | Post-emergence action, Solanum [2] | Post-emergence action, Stellaria [2] | also measured |
| --- | --- | --- | --- | --- | --- | --- | --- | --- | --- | --- | --- | --- | --- |
| CCC1(C)CCC(=O)C(C(=O)c2ccc(C(F)(F)F)nc2C)=C1O (stereo not shown) [Compound A2-B25] | 2 | 3 | 2 | 2 | 1 | 2 | 1 | 2 | 2 | 2 | 1 | 2 |  |
| Cc1nc(C(F)(F)F)ccc1C(=O)C1=C(O)C(C)C(C)CC1=O (stereo not shown) [Compound A2-B134] | 1 | 2 | 1 | 2 | 1 | 1 | 2 | 2 | 1 | 1 | 1 | 2 |  |
| Cc1nc(C(F)(F)F)ccc1C(=O)C1=C(O)C(C)(C)CC(C)(C)C1=O [Compound A2-B90] | 1 | 1 | 1 | 1 | 1 | 1 | 1 | 2 | 2 | 1 | 2 | 2 |  |
| COC1CCC(=O)C(C(=O)c2ccc(C(F)(F)F)nc2C)=C1O (stereo not shown) [Compound A2-B1068] | 2 | 2 | 2 | 2 | 1 | 2 | 1 | 2 | 4 | 1 | 1 | 2 |  |
| Cc1c(C(=O)C2=C(O)C(C)(C)C(=O)C(C)(C)C2=O)ccc(C(F)(F)F)[n+]1[O-] [Compound A1210-B354] | 2 | 3 | 2 | 1 | 1 | 2 | 2 | 2 | 2 | 1 | 1 | 2 |  |
| Cc1nc(C(F)(F)F)ccc1C(=O)C1=C(O)C(C)(C)C(C)CC1=O (stereo not shown) [Compound A2-B156] | 1 | 2 | 1 | 2 | 1 | 2 | 1 | 2 | 2 | 1 | 2 | 2 |  |
| COCc1nc(C(F)(F)F)ccc1C(=O)C1=C(O)CC(C(F)(F)F)CC1=O (stereo not shown) [Compound A8-B1064] | 2 | 4 | 3 | 2 | 1 | 3 | 2 | 4 | 2 | 1 | 1 | 2 |  |
| CCC1(C)CC(C)C(=O)C(C(=O)c2ccc(C(F)(F)F)nc2C)=C1O (stereo not shown) [Compound A2-B69] | 1 | 4 | 2 | 2 | 1 | 1 | 1 | 2 | 2 | 1 | 2 | 2 |  |
| CSC1(C)CC(C)C(=O)C(C(=O)c2ccc(C(F)(F)F)nc2C)=C1O (stereo not shown) [Compound A2-B73] | 3 | 4 | 2 | 2 | 2 | 2 | 1 | 3 | 2 | 1 | 1 | 2 |  |
| COCc1nc(C(F)(F)F)ccc1C(=O)C1=C(O)C(C)(C)C(C)CC1=O (stereo not shown) [Compound A8-B156] |  |  |  |  |  |  |  |  |  |  |  |  | Pre-emergence action, Abutilon ([1]; Abutilon, 250 g/ha): 3; Pre-emergence action, Amaranthus ([1]; Amaranthus, 250 g/ha): 4; Pre-emergence action, Chenop. ([1]; Chenop., 250 g/ha): 2; Pre-emergence action, Digitaria ([1]; Digitaria, 250 g/ha): 3; Pre-emergence action, Echino. ([1]; Echino., 250 g/ha): 3; Pre-emergence action, Panicum ([1]; Panicum, 250 g/ha): 3; Post-emergence action: Abutilon (score, nine-step scale) ([2]; Abutilon, 250 g/ha, sprayed at 4- to 6-leaf stage): 1; Post-emergence action: Chenop. (score, nine-step scale) ([2]; Chenop., 250 g/ha, sprayed at 4- to 6-leaf stage): 1; Post-emergence action: Digitaria (score, nine-step scale) ([2]; Digitaria, 250 g/ha, sprayed at 4- to 6-leaf stage): 3; Post-emergence action: Echino. (score, nine-step scale) ([2]; Echino., 250 g/ha, sprayed at 4- to 6-leaf stage): 3; Post-emergence action: Ipopur. (score, nine-step scale) ([2]; Ipopur., 250 g/ha, sprayed at 4- to 6-leaf stage): 2; Post-emergence action: Panicum (score, nine-step scale) ([2]; Panicum, 250 g/ha, sprayed at 4- to 6-leaf stage): 2; Post-emergence action: Xanth. (score, nine-step scale) ([2]; Xanth., 250 g/ha, sprayed at 4- to 6-leaf stage): 2 |
| Cc1nc(C(F)(F)F)ccc1C(=O)C1=C(O)C(C)(C)OC(C)(C)C1=O [Compound A2-B618] | 1 | 1 | 1 | 2 | 1 | 1 | 2 | 2 | 2 | 1 | 2 | 2 |  |
| COC1(C)CCC(=O)C(C(=O)c2ccc(C(F)(F)F)nc2C)=C1O (stereo not shown) [Compound A2-B33] | 1 | 3 | 2 | 2 | 1 | 3 | 2 | 4 | 2 | 1 | 2 | 2 |  |
| Cc1nc(C(F)(F)F)ccc1C(=O)C1=C(O)C(C)CC2(CCC2)C1=O (stereo not shown) [Compound A2-C152] | 1 | 1 | 2 | 2 | 1 | 2 | 2 | 2 | 3 | 1 | 2 | 2 |  |
| CCN(CC)CC.Cc1nc(C(F)(F)F)ccc1C(=O)C1=C(O)CCCC1=O [Compound A2-B1100] | 1 | 3 | 1 | 2 | 1 | 2 | 2 | 2 | 3 | 1 | 1 | 2 |  |
| Cc1nc(C(F)(F)F)ccc1C(=O)C1=C(O)CC(C(C)C)CC1=O (stereo not shown) [Compound A2-B1061] | 3 | 3 | 2 | 2 | 1 | 2 | 2 | 2 | 2 | 1 | 2 | 2 |  |

Source: patent publication US6673938B1, “Substituted pyridine herbicides” (Syngenta Participations AG, priority 1998, dated 2004)
